pIC50: −log10 of the molar value.

The test system of the first assay is Plasmodium falciparum. Briefly: Antimalarial activity against chloroquine-sensitive Plasmodium falciparum HB3 by pico-green dye based fluorescence assay. The class given is functional, organism-based.
Conditions: not given
Compound `C/C1=C/C(=O)O[C@H](C(C)(C)C)CCC[C@H](O)CCC[C@H](O)CCC[C@H](O)CCC[C@@H](O)C[C@@H](O)C[C@H](O)CCC[C@@H](O)CCC[C@@H](O)C[C@@H](O)CCCCC1` [listing 1 of 2 here] had a pIC50 of 5.85.

The assay is the same for the next values; noted with them: Plasmodium falciparum, HB3.
With `C/C1=C/C(=O)O[C@H](C(C)(C)C)CCC[C@H](O)CCC[C@H](O)CCC[C@H](O)CCC[C@@H](O)C[C@@H](O)C[C@H](O)CCC[C@@H](O)CCC[C@@H]2C[C@H](CCCCC1)OC(C)(C)O2`, the pIC50 was 5.64. On to `C/C1=C/C(=O)O[C@H](CCC[C@@H](O)CCC[C@@H](O)CCC[C@@H](O)CCC[C@H](O)C(C)(C)C)C[C@@H](O)C[C@H](O)CCC[C@@H](O)CCC[C@@H](O)C[C@@H](O)CCCCC1`, for which the pIC50 is 5.24. The same measure, in the same setting: with `C/C1=C/C(=O)O[C@H](C(C)(C)C)CCC[C@H](O)CCC[C@H](O)CCC[C@H](O)CCC[C@@H]2C[C@H](C[C@H](O)CCC[C@@H](O)CCC[C@@H]3C[C@H](CCCCC1)OC(C)(C)O3)OC(C)(C)O2` the figure was 5.01; with `C/C1=C/C(=O)O[C@H](C(C)(C)C)CCC[C@H](O)CCC[C@H](O)CCC[C@H](O)CCC[C@@H](O)C[C@@H](O)C[C@H](O)CCC[C@@H](O)CCC[C@@H](O)C[C@@H](O)CCCCC1` [listing 2 of 2 here], 5.59. The same measure, in the same setting: with `C/C1=C/C(=O)O[C@H](C(C)(C)C)CCC[C@H](O)CCC[C@H](O)CCC[C@H](O)CCC[C@@H]2C[C@H](C[C@H](O)CCC[C@@H](O)CCC[C@@H](O)C[C@@H](O)CCCCC1)OC(C)(C)O2` the figure was 4.70.

Values taken from ChEMBL document CHEMBL4130616, “Bastimolide B, an Antimalarial 24-Membered Marine Macrolide Possessing a tert-Butyl Group” (J Nat Prod, 2018).
